One data set relates to PLC/PRF/5 (PLC) cells. The data set can be described thus: Cellular response to doxorubicin, cell viability by Alamar Blue assay. The settings on record: 72 hours post treatment. In kind it is cell-based, human. On the procedure:
(§1) Proliferation of cells cultured on 2D wells, Matrigel matrix, and CA scaffolds was determined using the Alamar Blue assay following the manufacturer's protocol. Briefly, cells cultured on 2D wells and 3D scaffolds were washed with D-PBS before adding 1 mL of Alamar Blue solution (10% Alamar Blue in fully supplemented phenol red free DMEM or MEM) to each well.
(§2) For human hepatocellular carcinoma cells, after 2 hrs the Alamar Blue solution was transferred to a 96-well plate to obtain fluorescent values on a SpectraMax M2 microplate reader (Molecular Devices, Sunnyvale, Calif.) at 550 nm excitation, 590 nm emission. Standard curves were generated by seeding cells counted using a hemocytometer onto cell culture materials in triplicate, and performing Alamar Blue assay to generate a plot of linear regression of fluorescent values vs. cell number for each material. The cell number in an experimental sample was calculated based on the standard curve. No background fluorescence was generated by CA scaffolds. Cells were again washed with D-PBS to remove Alamar Blue solution and fresh fully-supplemented media were added to each well.
(§3) For human hepatocellular carcinoma cell-containing scaffolds, after 10 days of culture, media from cell cultures were replaced with 1 mL fully supplemented cell culture media containing various concentrations of doxorubicin. Cells were induced with doxorubicin containing media for 24 h, after which media was replaced with standard fully supplemented cell culture media. Cell viability was assessed using the Alamar Blue assay following the manufacturer's protocol as described above. LD50 was estimated via a polynomial approximation.

A further data set deals with HepG2 cells. The description is as above. In kind it is cell-based, human. The settings on record: for LD50 for doxorubicin: 72 hours post treatment; for viability at 1 µM: Homo sapiens, read-out: viability relative to untreated cells. On the procedure:
as §1, §2, §3

For data set [1] the following is noted: cited from earlier work.

SMILES strings stand for the structures. Like-named read-outs stand apart in the source and are kept apart here.

As to `COc1cccc2c1C(=O)c1c(O)c3c(c(O)c1C2=O)C[C@@](O)(C(=O)CO)C[C@@H]3O[C@H]1C[C@H](N)[C@H](O)[C@H](C)O1` [doxorubicin], the LD50 of doxorubicin amounted to 4 ± 1.4 µM in the data set with PLC/PRF/5 (PLC) cells (PLC cells CA cultured), 3 ± 1.1 µM in the data set on PLC/PRF/5 (PLC) cells (PLC cells Matrigel cultured) and 0.2 ± 0.13 µM in the data set with PLC/PRF/5 (PLC) cells (PLC cells cultured on 2D surfaces). For the same compound, the LD50 for doxorubicin in the data set on HepG2 cells (HepG2 cells cultured in 2D substrate) worked out at 0.45 ± 0.18 µM; in the data set on HepG2 cells (HepG2 cells in CA), 13 ± 1.7 µM; in the data set with HepG2 cells (HepG2 cells in Matrigel), 7 ± 2.2 µM. In addition, the viability at 1 µM amounted to 86.7 ± 2.4% in the data set on HepG2 cells (HepG2, 48 h) and 88.6 ± 2.75% in the data set with HepG2 cells (HepG2, 72 h). Besides, in data set [1] (48 hours post treatment), the clearance from plasma result is reported as “nearly complete clearance”. Besides, the peak plasma concentration result in data set [1] (standard dosing schemes, minutes after treatment) is recorded as “approximately 15 μM”.

These data come from patent publication US9157908B2, “Chitosan-alginate scaffold cell culture system and related methods” (University of Washington through its Center for …, priority 2011, dated 2015).
